This note sets out measurements from patent publication US8476290B2, “Compound having spiro-bonded cyclic group and use thereof” (Ono Pharmaceutical Co., Ltd., priority 2009, dated 2013).

The nature of data set [1]: Blood kinetic test and time (T90) to maintain the IC90 value. Format: in vivo, Crl:CD(SD) Rat. Conditions: time the plasma concentration stays at the PBMC IC90 value or more; rat, intravenous 1 mg/kg. The procedure: A test compound was weighed, dissolved in WellSolve (trade name; manufactured by Celeste Corporation)/water/physiological saline=1/9/10 which was heated at 60° C. and adjusted to 20 mg/mL. Thereafter, the test compound was diluted by 10 times with distilled water for injection, and further diluted by 2 times with physiological saline. Then, intravenous administration was performed by rapid single administration of an intravenously administered solution (1 mg/kg) from the tail vein of Crl:CD(SD) Rat (male, manufactured by CHARLES RIVER LABORATORIES JAPAN, INC). The administration is conducted under fasting conditions; water is freely ingested. A 0.35 mL blood sample is taken from cervical vein by using Heparinized Syringe at 5 minutes, 15 minutes, 30 minutes, 1 hour, 2 hours, 4 hours, 6 hours, 8 hours, and 24 hours after administration. The obtained blood is stored in ice, and after centrifugation at 12,000 rpm for 5 minutes, blood plasma is fractionated. An internal standard solution (100 μL) and acetonitrile (2 mL) was added to 100 μL of plasma, followed by stirring and further centrifugation at 2,500 rpm for 10 minutes. The supernatant was desiccated by a centrifugal thickener and then 150 μL of an aqueous 67% dimethyl sulfoxide solution was added to the residue thereby dissolving again the residue, and 20 μL of the resultant solution was analyzed by LC/MS/MS.
Analysis by LC/MS/MS was carried out under the following conditions.
A curve of the compound concentration in plasma versus the time of each compound was adapted to a 1 or 2 compartment model using pharmacokinetic analysis software WinNonlin (trade name) (ver4.0.1, Pharsight Corporation).

For data set [2], the system named is CHL/IU (cell line derived from a Chinese hamster lung). Briefly: Phospholipid accumulation measurement (phospholipidosis induction). Format: cell-based. Conditions: NBD-PE, about 48 hours, at 400 μM (maximum treatment concentration); positive = 25% or more of maximum increase rate of amiodarone. The protocol: 100 µL/well as required (1 dose 2 wells) of cell suspension of CHL/IU (cell line derived from a Chinese hamster lung) (7×10^4 cells/mL) prepared by MEM (minimum essential medium) culture medium was added to a 96-well plate (96-well clear-bottom plate), and cultured for about 24 hours. After culture, the supernatant of the 96-well plate was removed, and the 100 μL/well compounds of each concentration dissolved and suspended in a minimum essential medium (MEM) including 25 μM nitrobenzoxazole dipalmitoyl phosphatidylethanolamine (NBD-PE) (hereinafter abbreviated to a NPD-PE medium) were added and treated for about 48 hours. The treatment concentrations of each compound were set to be 5, 50, 100, 200 and 400 μM. The positive control substance was set to be amiodarone hydrochloride, and the treatment concentrations were set to be 1.25, 2.5, 5, 10 and 20 μM. In addition, 5-well untreated controls (only MEM) and 5-well NBD-PE controls (made by means of adding a 1/100 amount of DMSO to the NBD-PE culture medium) were set per compound, and cultured in the same manner. After finishing the culture, the cultures were washed twice with PBS (−) 100 μL/well, and the MEM (100 μL) was added to all of the treatment wells including two empty wells for WST-1 background controls and cultured for about half an hour. The fluorescence intensities of each well were measured by using a microplate reader (manufactured by Molecular Devices Inc., SPECTRA max M2; the excitation wavelength 485 nm/fluorescence wavelength 535 nm). Using the average values of each dose×2 wells, a phospholipid increase rate (%) to the NBD-PE control was calculated by using the following calculating formula: Rate of increase of phospholipid accumulation (%)=100×{(test substance fluorescence intensity−non-treated control fluorescence intensity)/(NBD-PE control fluorescence intensity−non-treated control fluorescence intensity)} 3. Cytotoxicity Test 96-well plate measured in the phospholipid accumulation measurement was measured by means of Plate Reader (manufactured by Molecular Devices Inc., SPECTRA max M2) with the main wavelength of 450 nm and the correct wavelength of 690 nm to calculate a Pre value. An amount of 5 μL/well of Premix WST-1 was added to each of the 96-well plates by which Pre measurement was conducted. After culture for 2 to 4 hours, the 96-well plate was measured as well as the Pre measurement to calculate an Aft value. Then, the background control value was subtracted from the each measured value. A value which was calculated by subtracting the Pre value from the Aft value was used, then the cell growth rate (%) was calculated by using the following calculating formula: Cell growth rate (%)=100×{(test substance OD)/(NBD-PE control OD)} 4. Determination A test dose that indicated value of 25% or more of the maximum phospholipid accumulation increase rate of amiodarone which was the positive control was determined as positive. In addition, the dose whose cell growth rate was equal to or less than 50% in the cytotoxicity test was not used for determination of existence or nonexistence of a phospholipidosis inductive effect.

Data set [3] addresses T1, CXCR4 (Homo sapiens, UniProt P61073).
T1 construct: a human T cell strain in which CXCR4 is known to be expressed; endogenous in cells; host or cells: CEM cells (human T cell strain)
The experiment in a line: Inhibition of binding human SDF-1 to CEM cells. Conditions: 125I-SDF-1, CEM cells, 4° C., 60 minutes; read-out: concentration showing 50% of an inhibition ratio. The procedure: Specifically, as a system of screening a compound that inhibits the binding between SDF-1 and CXCR4, for example a system of measuring the binding between iodine-labeled SDF-1 and a human T cell strain in which CXCR4 is known to be expressed is operable.
To human T cell strain CEM cells in a binding buffer (containing 2-[4-(2-Hydroxyethyl)-1-piperadinyl]ethansulfonic acid; HEPES and BSA), the test compound and ^125I-SDF-1 (PerkinElmer) were added and the mixture was incubated at 4° C. for 60 minutes. The reacted CEM cells were rapidly filtrated with a GF/B membrane filter plate (Packard) to adsorb. The plate was washed with phosphate buffered saline (hereinafter abbreviated to PBS) three times and then dried. Microscint+20 (Packard) was added thereto. An amount of the radioactivity bound to the CEM cells was measured using Top Count (Packard) and inhibition ratio (%) of the test compound was calculated according to the following equation: Inhibition={(Et−Ea)/(Et−Ec)}×100 [Equation 2] Et: Amount of radioactivity when the test compound is not added, Ec: Amount of radioactivity when non-radioactive SDF-1 (Pepro Tech) is added in an amount of 1,000 times as much as ^125I-SDF-1 as a test compound, and Ea: Amount of radioactivity when the test compound is added.

The subject of data set [4] is X4-HIV-1 strains (for example, HIV-1NL4.3 strains). The experiment in a line: HIV infection inhibitory test using PBMC. The data set is classed as cell-based. As to conditions: human PBMC stimulated with PHA and IL-2, culture 7 days, culture supernatant. The procedure: Human PBMC (peripheral blood mononuclear cells) was isolated from HIV-negative healthy persons and subjected to stimulated culture in the presence of PHA (Phytohemagulutinin) and IL-2. Stimulated PBMC was inoculated in each of 96-well microplates and X^4-HIV-1 strains (for example, HIV-1NL4.3 strains) were exposed in the co-presence of a test compound. After culturing for 7 days, a reverse transcriptase activity of HIV-1 in the culture supernatant was measured and an inhibitory ratio (%) of the test compound was calculated by the following calculation formula, and a concentration (IC90 value) showing a 90% inhibitory ratio was determined. Inhibition={(Et−Ec)/Et}×100 [Equation 1] Et: reverse transcriptase activity value in the absence of a test compound Ec: reverse transcriptase activity value in the presence of a test compound

T1 sequence (P61073 whole entry): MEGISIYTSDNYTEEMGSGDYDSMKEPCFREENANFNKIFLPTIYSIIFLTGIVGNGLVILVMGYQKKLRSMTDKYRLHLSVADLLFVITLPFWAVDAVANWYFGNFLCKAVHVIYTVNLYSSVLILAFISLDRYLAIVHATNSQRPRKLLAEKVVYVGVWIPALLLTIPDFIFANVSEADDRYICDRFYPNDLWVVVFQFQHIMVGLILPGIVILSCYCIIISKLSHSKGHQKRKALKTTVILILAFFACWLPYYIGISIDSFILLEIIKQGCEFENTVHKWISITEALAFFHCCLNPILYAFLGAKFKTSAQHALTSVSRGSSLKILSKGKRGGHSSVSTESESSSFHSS

Take `CCOC(=O)C1CC2(CCN(Cc3ccc(C(=O)N(Cc4ncc[nH]4)Cc4ncc[nH]4)cc3)CC2)CN1C1CCCCC1` (stereo not shown) [j]: in data set [1], the “T90” value is reported as below 1 h. Same read-out and setting: then `O=C(O)Cn1ccnc1CN(Cc1ccc(CN2CCC3(CCN(C4CCCCC4)CC3)C2)cc1)Cc1ncc[nH]1` [l], with 4 h; and `CCC(CC)N1CCC2(CCN(Cc3ccc(CN(Cc4ncc[nH]4)Cc4ncc[nH]4)cc3)C2)CC1` [b, 1-(4-{[8-[1-ethylpropyl]-2,8-diazaspiro[4.5]deca-2-yl)methyl}phenyl]-N,N-bis(1H-imidazol-2-ylmethyl)methaneamine], with 12 h. As for `CCC(CC)N1CCC2(CC1)CN(Cc1ccc(CN(Cc3ncc[nH]3)Cc3ncc[nH]3)cc1)CC2C(=O)O` (stereo not shown) [e, 2-(4-{[bis(1H-imidazol-2-ylmethyl)amino]methyl}benzyl)-8-(1-ethylpropyl)-2,8-diazaspiro[4.5]decane-4-carboxylic acid], the “T90” value in data set [1] stood at 17 h. Still for that read-out and setting: the figure for `CCC(CC)N1CCC2(CC1)C[C@@H](C(N)=O)N(Cc1ccc(CN(Cc3ncc[nH]3)Cc3ncc[nH]3)cc1)C2` [c, (3S)-2-(4-{[bis(1H-imidazol-2-ylmethyl)amino]methyl}benzyl)-8-(1-ethylpropyl)-2,8-diazaspiro[4.5]decane-3-carboxyamide] is 7 h. For `CCC(CC)N1CCC2(CC1)C[C@@H](C(=O)O)N(Cc1ccc(CN(Cc3ncc[nH]3)Cc3nccn3C)cc1)C2` [Example 37(7), (3S)-8-(1-ethylpropyl)-2-[4-({(1H-imidazol-2-ylmethyl)[(1-methyl-1H-imidazol-2-yl)methyl]amino}methyl)benzyl]-2,8-diazaspiro[4.5]decane-3-carboxylic acid], in data set [2], the “phospholipidosis induction activity (determination)” value (“phospholipidosis induction activity” below) was “negative”. Further, in data set [3], the IC50 amounted to 11.1 nM. In the case of `CC(C)CN1CCC2(CCN(Cc3ccc(CN(Cc4ncc[nH]4)Cc4ncc[nH]4)cc3)C2)CC1C(=O)O` (stereo not shown) [g, 2-(4-{[bis(1H-imidazol-2-ylmethyl)amino]methyl}benzyl)-8-isobutyl-2,8-diazaspiro[4.5]decane-7-carboxylic acid], the “T90” value in data set [1] was 2 h.

Take `CCC(CC)N1CCC2(CC1)CCN(Cc1ccc(CN(Cc3ncc[nH]3)Cc3ncc[nH]3)cc1)C2C(=O)O` (stereo not shown) [f, 2-(4-{[bis(1H-imidazol-2-ylmethyl)amino]methyl}benzyl)-8-(1-ethylpropyl)-2,8-diazaspiro[4.5]decane-1-carboxylic acid]: in data set [1], the “T90” value is given as 6 h.

For the compound `COC(=O)c1cc(CN(Cc2ncc[nH]2)Cc2ncc[nH]2)ccc1CN1CCC2(CCN(Cc3sccc3C)CC2)C1` [k], the “T90” value in data set [1] came out at 14 h.

For the compound `CCCN(CC)CCCCN(CC(=O)O)Cc1ccc(CN(Cc2ncc[nH]2)Cc2nccn2C)cc1` [i], in data set [1], the “T90” value is reported as 3 h. In the case of `CCC(CC)N1CCC2(CC1)C[C@H](C(=O)O)N(Cc1ccc(CN(Cc3ncc[nH]3)Cc3nccn3C)cc1)C2` [Example 37(6), (3R)-8-(1-ethylpropyl)-2-[4-({(1H-imidazol-2-ylmethyl)[(1-methyl-1H-imidazol-2-yl)methyl]amino}methyl)benzyl]-2,8-diazaspiro[4.5]decane-3-carboxylic acid], the “phospholipidosis induction activity” value in data set [2] was “negative”. Besides, the IC50 in data set [3] stood at 11.3 nM. As for `CCC(CC)N1CC2(CCN(Cc3ccc(CN(Cc4ncc[nH]4)Cc4ncc[nH]4)cc3)CC2)CC1C(=O)O` (stereo not shown) [h, 8-(4-{[bis(1H-imidazol-2-ylmethyl)amino]methyl}benzyl)-2-(1-ethylpropyl)-2,8-diazaspiro[4.5]decane-3-carboxylic acid], the “T90” value in data set [1] came out at 1.2 h. The same measure, in the same setting: the figure for `O=C(O)c1cc(CN(Cc2ncc[nH]2)Cc2ncc[nH]2)ccc1CN1CCC2(CCN(C3CCCCC3)CC2)C1` [d, 5-{[bis(1H-imidazol-2-ylmethyl)amino]methyl}-2-[(8-cyclohexyl-2,8-diazaspiro[4.5]deca-2-yl)methyl]benzenecarboxylic acid] is 5 h. With `CCC(CC)N1CCC2(CC1)C[C@@H](C(=O)O)N(Cc1ccc(CN(Cc3ncc[nH]3)Cc3ncc[nH]3)cc1)C2` [Example 32(7), (3S)-2-(4-{[bis(1H-imidazol-2-ylmethyl)amino]methyl}benzyl)-8-(1-ethylpropyl)-2,8-diazaspiro[4.5]decane-3-carboxylic acid], the “IC90 value (concentration showing a 90% inhibitory ratio of HIV-1 reverse transcriptase activity)” value in data set [4] was 0.23 nM. In data set [2], the “phospholipidosis induction activity” value is reported as “negative”. Further, the IC50 in data set [3] was determined as 3.2 nM.

Regarding `CCC(CC)N1CCC2(CC1)C[C@H](C(=O)O)N(Cc1ccc(CN(Cc3ncc[nH]3)Cc3ncc[nH]3)cc1)C2` [Example 32(6), (3R)-2-(4-{[bis(1H-imidazol-2-ylmethyl)amino]methyl}benzyl)-8-(1-ethylpropyl)-2,8-diazaspiro[4.5]decane-3-carboxylic acid], the “IC90 value (concentration showing a 90% inhibitory ratio of HIV-1 reverse transcriptase activity)” value in data set [4] was 0.27 nM. Besides, the “phospholipidosis induction activity” value in data set [2] is recorded as “negative”. In data set [3], the IC50 stood at 3.3 nM. `CCC(CC)N1CCC2(CCN(CCCn3ccnc3CN(Cc3cccc(CC(=O)O)c3)Cc3ncc[nH]3)C2)CC1` [m]: the “T90” value in data set [1] is 4 h.
